The results in this text go back to patent publication EP0823908B1, “PYRIDO[2,3-d]PYRIMIDINES FOR INHIBITING PROTEIN TYROSINE KINASE MEDIATED [sequence] PROLIFERATION” (Warner-Lambert Company LLC, priority 1995, dated 1996).

In one test the test system is transplanted tumors. Put plainly: Transplanted tumor assay. The format is in vivo. As to conditions: F1 hybrid mice; compound generally by infusion by tail tether. On the procedure:
F1 hybrid mice were used in the assay. The mice receive ascites fluid or dilutions of tumor brei on Day 0. A sample of the inocula is incubated in thioglycolate media as a check for gross contamination of the tumor material. After all test animals are inoculated with tumors, they are randomized for the assay. Control animals receive vehicle, while treated animals receive an invention compound dissolved in the vehicle, generally by infusion by tail tether. All animals are monitored daily for acute toxicity and other clinical signs. Survival is checked daily for the control group and treated group. The assay generally is continued for 60 days, at which time all surviving animals are euthanized.

The next test addresses T1, C-src kinase (Homo sapiens, UniProt P12931).
T1 construct: made in house; host or cells: baculovirus infected insect cells
In words: C-src kinase assay (poly GluTyr substrate). Type of test: biochemical. Conditions: read-out: C-src TK IC50.

The subject of the next test is SW-620. In words: Soft agar colony formation, human colon adenocarcinoma cells. The format is cell-based. As to conditions: SW-620, 336 h, read-out: Inhibition of Human Colon Adenocarcinoma IC50, SW-620. On the procedure: (§1) Three such human cell lines were identified as HCT-8, SW-620, and HT-29. In a typical assay, the cells are suspended in 0.3% soft agar containing an invention compound at various concentration levels, and are plated into six-well plates, each plate containing a 1% agar plug. The cell plates are incubated at 37°C in a humidified carbon dioxide (5%) incubator, generally for 2 weeks. At the end of the incubation period, colonies of cells are detected by staining the wells with 1 mg/mL of p-iodonitrotetrazolium violet. The cells are counted on an optical colony counter. […] TABLE III. Inhibition of Human Colon Adenocarcinoma IC50 (µM)

For the next test, the system named is HCT-8. Described as above. Type of test: cell-based. Conditions: HCT-8, 336 h, read-out: Inhibition of Human Colon Adenocarcinoma IC50, HCT-8. As to the method:
as §1

A further test has as its system HT-29. The description is as above. The format is cell-based. As to conditions: HT-29, 336 h, read-out: Inhibition of Human Colon Adenocarcinoma IC50, HT-29. As to the method: as §1
The target in test [1] is T2, Human EGF receptor tyrosine kinase (Homo sapiens, UniProt P00533).
T2 construct: Human EGF receptor tyrosine kinase was isolated from A431 epidermoid carcinoma cells; endogenous in cells; host or cells: A431 epidermoid carcinoma cells
T2 sequence (P00533 25-1210): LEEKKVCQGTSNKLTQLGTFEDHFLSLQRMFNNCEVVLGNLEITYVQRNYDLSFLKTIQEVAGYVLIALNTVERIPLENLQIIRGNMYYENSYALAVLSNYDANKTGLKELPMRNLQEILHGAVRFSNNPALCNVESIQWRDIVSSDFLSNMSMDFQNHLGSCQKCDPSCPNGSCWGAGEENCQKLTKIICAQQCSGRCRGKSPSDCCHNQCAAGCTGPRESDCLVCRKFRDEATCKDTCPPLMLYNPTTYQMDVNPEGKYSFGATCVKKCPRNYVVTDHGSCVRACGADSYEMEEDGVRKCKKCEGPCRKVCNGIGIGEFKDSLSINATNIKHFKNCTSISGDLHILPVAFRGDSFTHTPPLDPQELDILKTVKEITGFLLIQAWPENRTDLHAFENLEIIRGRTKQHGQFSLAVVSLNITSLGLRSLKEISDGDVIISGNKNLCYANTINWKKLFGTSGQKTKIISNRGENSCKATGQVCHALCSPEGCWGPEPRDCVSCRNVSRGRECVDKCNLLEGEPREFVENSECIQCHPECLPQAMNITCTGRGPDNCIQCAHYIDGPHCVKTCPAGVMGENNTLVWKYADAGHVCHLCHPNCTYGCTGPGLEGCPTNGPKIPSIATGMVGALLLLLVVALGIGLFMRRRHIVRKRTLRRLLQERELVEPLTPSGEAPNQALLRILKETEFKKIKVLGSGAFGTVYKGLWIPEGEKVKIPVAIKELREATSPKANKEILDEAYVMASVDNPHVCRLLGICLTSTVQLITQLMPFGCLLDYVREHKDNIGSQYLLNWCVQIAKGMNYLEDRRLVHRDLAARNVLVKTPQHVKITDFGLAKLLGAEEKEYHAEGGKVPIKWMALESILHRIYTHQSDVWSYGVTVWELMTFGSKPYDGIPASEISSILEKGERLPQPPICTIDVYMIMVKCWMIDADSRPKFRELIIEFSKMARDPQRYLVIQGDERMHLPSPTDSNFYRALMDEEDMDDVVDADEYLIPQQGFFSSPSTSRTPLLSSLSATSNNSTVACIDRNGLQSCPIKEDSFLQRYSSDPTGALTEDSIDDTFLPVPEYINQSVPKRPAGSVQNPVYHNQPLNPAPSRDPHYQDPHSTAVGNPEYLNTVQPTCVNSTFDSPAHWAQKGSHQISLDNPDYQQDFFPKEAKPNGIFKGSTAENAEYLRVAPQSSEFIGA
Put plainly: EGF receptor tyrosine kinase enzyme assay (substrate peptide phosphorylation). Type of test: biochemical. As to conditions: read-out: EGF-FL IC50.

T1 sequence (P12931 whole entry): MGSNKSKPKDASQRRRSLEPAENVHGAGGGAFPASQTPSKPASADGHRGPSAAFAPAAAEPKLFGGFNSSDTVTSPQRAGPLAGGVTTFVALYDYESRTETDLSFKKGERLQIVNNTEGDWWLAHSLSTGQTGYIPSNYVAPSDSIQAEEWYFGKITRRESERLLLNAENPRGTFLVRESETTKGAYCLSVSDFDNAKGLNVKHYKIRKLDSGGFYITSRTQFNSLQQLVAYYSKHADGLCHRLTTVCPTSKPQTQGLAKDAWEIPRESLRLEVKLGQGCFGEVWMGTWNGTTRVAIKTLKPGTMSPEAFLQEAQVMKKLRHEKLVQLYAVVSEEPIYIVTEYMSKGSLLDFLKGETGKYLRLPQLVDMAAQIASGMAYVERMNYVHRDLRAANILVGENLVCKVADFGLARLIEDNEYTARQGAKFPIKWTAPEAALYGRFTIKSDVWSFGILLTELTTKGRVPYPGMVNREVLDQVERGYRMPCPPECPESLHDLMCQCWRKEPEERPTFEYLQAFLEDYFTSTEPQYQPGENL

For orientation: IC50 means the concentration that inhibits the measured activity by half. As for `Cn1c(=O)c(-c2c(Cl)cccc2Cl)cc2cnc(Nc3ccccc3)nc21` [Example 54, 6-(2,6-Dichlorophenyl)-8-methyl-2-phenylamino-8H-pyrido[2,3-d]pyrimidin-7-one], the “life span of animals infected with transplanted tumors” value with transplanted tumors is “increased the life span”. Further, the IC50 on C-src kinase was 24 nM; in the test on SW-620 it was 140 nM; in the test on HCT-8, 520 nM; in the test with HT-29, 490 nM; in test [1], 78 nM.
